Consider three compounds from patent publication US9403785B2, “Process for preparing amorphous cabazitaxel” (SHILPA MEDICARE LIMITED, priority 2012, dated 2016).

Series [1] is described as follows: Storage stability of solid form (morphology and physicochemical characteristics). The note with it: solid material obtained after solvent recovery. The source says:
The merit of the process according to the present invention resides in that—product obtained after recovery is obtained in non-solvated amorphous form of Cabazitaxel. Said material was found devoid of any crystal lattice and adequately stable to handle and store for longer time (at least up to more than 6 months) without any significant or measurable change in its morphology and physicochemical characteristics.

For series [2] the following is noted: cited from earlier work.
The conditions of series [3]: compared with acetone solvate form (Form A); cited from earlier work.

Turning to `CO[C@H]1C(=O)[C@@]2(C)C([C@H](OC(=O)c3ccccc3)[C@]3(O)C[C@H](OC(=O)[C@H](O)[C@H](NC(=O)OC(C)(C)C)c4ccccc4)C(C)=C1C3(C)C)[C@]1(OC(C)=O)CO[C@@H]1C[C@@H]2OC` (stereo in doubt) [(2α,5β,7β,10β,13α)-4-acetoxy-13-({(2R,3S)-3[(tert-butoxy-carbonyl)amino]-2-hydroxy-3-phenylpropanoyl}oxy)-1-hydroxy-7,10-dimethoxy-9-oxo-5,20-epoxytax-11-en-2-yl benzoate], the “time handled and stored without any significant or measurable change in morphology and physicochemical characteristics” value in series [1] is reported as “more than 6 months”.
As for `CO[C@H]1C(=O)[C@@]2(C)C([C@H](OC(=O)c3ccccc3)[C@]3(O)C[C@H](OC(=O)[C@H](O)[C@H](NC(=O)OC(C)(C)C)c4ccccc4)C(C)=C1C3(C)C)[C@]1(OC(C)=O)CO[C@@H]1C[C@@H]2OC` (stereo partly drawn) [Cabazitaxel, (2α,5β,7β,10β,13α)-4-acetoxy-13-({(2R,3S)-3[(tert-butoxycarbonyl)amino]-2-hydroxy-3-phenylpropanoyl}oxy)-1-hydroxy-7,10-dimethoxy-9-oxo-5,20-epoxytax-11-en-2-yl benzoate], the solubility in water result in series [2] is recorded as “practically insoluble in water”.
Consider `CO[C@H]1C(=O)[C@]2(C)[C@@H](OC)C[C@H]3OC[C@@]3(OC(C)=O)[C@H]2[C@H](OC(=O)c2ccccc2)[C@]2(O)C[C@H](OC(=O)[C@H](O)[C@@H](NC(=O)OC(C)(C)C)c3ccccc3)C(C)=C1C2(C)C` [Form D anhydrous, 4-acetoxy-2α-benzoyloxy-5β,20-epoxy-1-hydroxy-7β,10β-dimethoxy-9-oxotax-11-en-13α-yl (2R,3S)-3-tert-butoxycarbonylamino-2-hydroxy-3-phenyl-propionate], for which the “stability of solid form” value in series [3] was “highly stable, even more stable than acetone solvate form (Form A)”.
